What was measured:
[1] = Biopharmaceutics Classification System class; type: physicochemical; parameters: key: 2: the molecule has high permeability and low solubility
Source text: (§1) Being a BCS 2 molecule (according to the Biopharmaceutics Classification System, wherein the molecule has high permeability and low solubility), the API particles size distribution has been identified as a major critical quality attribute of the drug substance. […] Thus, micronized API was selected for development of a suitable formulation.

Solubility of bitopertin = type: physicochemical
Source text: as §1

C[C@H](Oc1ccc(S(C)(=O)=O)cc1C(=O)N1CCN(c2ncc(C(F)(F)F)cc2F)CC1)C(F)(F)F [Bitopertin]
BCS class (Biopharmaceutics Classification System) [1]: 2 | solubility in aqueous buffers and in water (Solubility of bitopertin; aqueous buffers and water): practically insoluble | solubility in polar organic solvents (Solubility of bitopertin; polar organic solvents): freely soluble

Reference: patent US20160271126A1, “PHARMACEUTICAL COMPOSITION” (Hoffmann-La Roche Inc., priority 2013, published 2016)
